In ChEMBL document CHEMBL1156605, “Discovery of dihydroquinoxalinone acetamides containing bicyclic amines as potent Bradykinin B1 receptor antagonists” (Bioorg Med Chem Lett, 2008) one finds microsomal CLint, IC50 and Ki data, which are given here for 14 compounds.

The structures appear in SMILES notation.

Series [1] in a line: Metabolic stability in human liver microsomes. The class given is ADME, Microsome. The conditions noted are these: read-out: Stability. For orientation: Liver microsomes are vesicles of endoplasmic reticulum, rich in cytochrome P450 enzymes.
Series [2] has as its target T1, B1 bradykinin receptor (Homo sapiens, UniProt P46663).
T1 sequence (P46663 whole entry): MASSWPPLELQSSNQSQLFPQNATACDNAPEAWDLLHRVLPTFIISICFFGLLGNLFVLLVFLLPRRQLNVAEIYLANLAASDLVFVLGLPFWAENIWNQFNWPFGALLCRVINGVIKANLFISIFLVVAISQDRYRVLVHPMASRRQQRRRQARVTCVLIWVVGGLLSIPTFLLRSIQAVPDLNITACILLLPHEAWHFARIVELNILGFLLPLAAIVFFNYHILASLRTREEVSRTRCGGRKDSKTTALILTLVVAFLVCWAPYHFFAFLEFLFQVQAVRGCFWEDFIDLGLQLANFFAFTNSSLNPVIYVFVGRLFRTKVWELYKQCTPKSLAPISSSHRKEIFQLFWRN
As to the kind of experiment: Antagonist activity at human bradykinin B1 receptor expressed in CHO-D-/aequorin cells. Format: functional, cell-based.

Series [3] has as its target T1, B1 bradykinin receptor. As to the kind of experiment: Displacement of [3H]DAK from human bradykinin B1 receptor expressed in CHO-D-/aequorin cells by rapid filtration technique. Format: cell-based. Background: Loss of bound radioactivity is the signal in a displacement assay; it reports binding, not function.

As for `O=Cc1ccc2c(c1)OCC[C@H]2NC(=O)C[C@@H]1C(=O)Nc2ccccc2N1S(=O)(=O)c1ccc(Cl)c(Cl)c1`, the microsomal CLint in series [1] was 407 µL/min/mg.

Turning to `O=C(C[C@@H]1C(=O)Nc2ccccc2N1S(=O)(=O)c1ccc(Cl)c(Cl)c1)NCCc1ccc(C2=NCCN2)cc1`, it took 0.18 nM to reach half-maximal inhibition on B1 bradykinin receptor [2] (IC50).

As for `CC(C)(C)NCc1ccc2c(c1)OCC[C@H]2NC(=O)C[C@@H]1C(=O)Nc2ccccc2N1S(=O)(=O)c1ccc(Cl)c(Cl)c1`, the affinity at B1 bradykinin receptor [3], expressed as Ki, was 1.1 nM. Besides, the IC50 (commonly the point on the concentration scale where inhibition reaches its midpoint) against B1 bradykinin receptor [2] was 1.7 nM. Besides, the microsomal CLint in series [1] stood at 174 µL/min/mg. Regarding `CC(C)CNCc1ccc2c(c1)OCC[C@H]2NC(=O)C[C@@H]1C(=O)Nc2ccccc2N1S(=O)(=O)c1ccc(Cl)c(Cl)c1`, the microsomal CLint in series [1] stood at 264 µL/min/mg. On to `CC(C)(C)NCc1ccc2c(c1)OCC[C@H]2NC(=O)C[C@@H]1C(=O)Nc2ccccc2N1S(=O)(=O)c1ccccc1`, for which, on B1 bradykinin receptor [3], the affinity corresponds to a Ki of 1.8 nM. Also, the IC50 against B1 bradykinin receptor [2] was 0.37 nM. The microsomal CLint in series [1] was found to be 26 µL/min/mg. As to `Cc1ccc(S(=O)(=O)N2c3ccccc3NC(=O)[C@H]2CC(=O)N[C@@H]2CCOc3cc(CN4CCCCC4)ccc32)cc1`, in series [1], the microsomal CLint came to 128 µL/min/mg. The same measure, in the same setting: then `O=C(C[C@@H]1C(=O)Nc2ccccc2N1S(=O)(=O)c1ccc(Cl)c(Cl)c1)N[C@@H]1CCOc2cc(CO)ccc21`, with 264 µL/min/mg.

Regarding `NCc1ccc2c(c1)OCC[C@H]2NC(=O)C[C@@H]1C(=O)Nc2ccccc2N1S(=O)(=O)c1ccc(Cl)c(Cl)c1`, in series [1], the microsomal CLint is 127 µL/min/mg. Regarding `COc1ccccc1NC(=O)CC1C(=O)Nc2ccccc2N1S(=O)(=O)c1c(C)cc(C)cc1C` (stereo unspecified), the Ki – broadly, the dissociation constant of the complex between target and ligand, obtained from inhibition or displacement – at B1 bradykinin receptor [3] is 500 nM. This compound had an IC50 on B1 bradykinin receptor [2] greater than 40000 nM. In the case of `CNCc1ccc2c(c1)OCC[C@H]2NC(=O)C[C@@H]1C(=O)Nc2ccccc2N1S(=O)(=O)c1ccc(Cl)c(Cl)c1`, the microsomal CLint in series [1] was determined as 107 µL/min/mg. The same measure, in the same setting: then `O=C(C[C@@H]1C(=O)Nc2ccccc2N1S(=O)(=O)c1ccc(Cl)c(Cl)c1)N[C@@H]1CCOc2cc(CN3CCCCC3)ccc21`, with 389 µL/min/mg; and `O=C(C[C@@H]1C(=O)Nc2ccccc2N1S(=O)(=O)c1ccccc1)N[C@@H]1CCOc2cc(CN3CCCCC3)ccc21`, with 76 µL/min/mg; and `CN(C)Cc1ccc2c(c1)OCC[C@H]2NC(=O)C[C@@H]1C(=O)Nc2ccccc2N1S(=O)(=O)c1ccc(Cl)c(Cl)c1`, with 208 µL/min/mg.

With `CC(C)NCc1ccc2c(c1)OCC[C@H]2NC(=O)C[C@@H]1C(=O)Nc2ccccc2N1S(=O)(=O)c1ccc(Cl)c(Cl)c1`, the Ki on B1 bradykinin receptor [3] was 0.7 nM. On B1 bradykinin receptor [2], the IC50 is 0.86 nM. Also, the microsomal CLint in series [1] came out at 156 µL/min/mg.
